Columns and labels:
[1] = tested on: human bladder carcinoma cell line UM-UC-3; assay: Bladder carcinoma cell line growth inhibition assay, UM-UC-3; type: cell-based; settings: UMUC3, 72 h, 3 days incubation, CellTiter-Glo 2.0
Description: In this assay, the growth inhibitory activity of Compound (1) in human bladder carcinoma cell lines RT4, RT112/84, and UM-UC-3 was measured. RT4 and RT112/84 cells were maintained in a RPMI-1640 (FUJIFILM Wako Pure Chemical Corporation, 189-02025) medium containing 10% fetal bovine serum (FBS: SIGMA Life Science, 172012-500ML), and penicillin and streptomycin (FUJIFILM Wako Pure Chemical Corporation, 168-23191) in a 5% CO2 incubator (37° C.). UM-UC-3 cells were maintained in an E-MEM (FUJIFILM Wako Pure Chemical Corporation, 051-07615) medium containing 10% FBS, 1 mM Sodium Pyruvate (FUJIFILM Wako Pure Chemical Corporation, 190-14881), and penicillin and streptomycin in a 5% CO2 incubator (37° C.). To each well of a 96 well plate (Coming, 3904), 90 μL of each cell suspension adjusted to a concentration of 5.55×10^3 cells/mL (RT4 or UM-UC-3) or 3.33×10^4 cells/mL (RT112/84) with the culture medium was added, and the cells were incubated overnight in a 5% CO2 incubator (37° C.). On the next day, 10 μL of Compound (1) in three-fold dilution series suspended in the culture medium was added to each well, and the resultant was incubated for 3 days in a 5% CO2incubator (37° C.). Then, cell viability was determined by CellTiter-Glo® 2.0 Assay (Promega Corporation, G9243) with ARVO-X4 Multimode Plate Reader (Perkin-Elmer, Wellesley, MA). […]

[2] = tested on: BJ normal human fibroblasts stimulated with TGF-β; assay: TGF-β-treated BJ cells, in vitro CAF-inducing system; type: cell-based
Description: FIG. 19A. BJ cells (normal human […] fibroblasts) were co-cultured with FaDu cells for three days in the absence (vehicle) or presence of A83-01, a potent selective TGF-β-R inhibitor, and the expression of α-SMA was analysed by immunofluorescence staining (red color). Samples were also stained with anti-pan-human cytokeratin (green color) for cancer cell staining and DAPI (blue color) for nuclear staining. FIGS. 19B-19E BJ cells were treated with Compound (1) (0.15 nmol/L in immunofluorescence staining data and indicated concentrations in western blot analysis data) and TGF-β for 2 days. FIGS. 19B-19E. Samples were stained with the indicated antibody (red color) and DAPI (blue color) for nuclear staining. FIG. 19E Western blot images and quantification of the images. […] FIGS. 19G and 19E BJ cells were pretreated with defactinib (1 μmol/L) and TGF-β for 2 days. The lens magnification used was x4 (FIGS. 19A, 19B, 19C, 19G, and 19H) or x40 (FIGS. 19D and 19E).
FIGS. 20A and 20B. Quantification of immunofluorescence images of BJ cells treated with TGF-β(1 ng/mL) and the indicated concentrations of Compound (1) for α-SMA (FIG. 20A), Phospho-S6-ribosomal protein (Ser235/236) (FIG. 20B). FIG. 20C. Immunofluorescence analysis of BJ cells treated with TGF-β in the absence or presence of dactolisib, a phosphatidylinositol 3 kinase inhibitor. FIG. 20D. Immunofluorescence analysis of phosphorylated Smad⅔ in BJ cells pretreated with Compound (1) (72 hours) after 30 minutes of stimulation with TGF-β. Acetylated-α-tubulin was co-stained to confirm the activity of Compound (1). FIG. 20E. Western blot analysis of Smad⅔ in BJ cells treated with TGF-β and the indicated concentrations of Compound (1). The lens magnification used was x4 (FIG. 20C) or x40 (FIG. 20D).
The expression of α-SMA was induced in BJ normal human fibroblasts upon co-cultivation with FaDu cells, and the expression was attenuated by treatment with A83-01, a potent selective inhibitor of the TGF-β-receptor (FIG. 19A).
Under the same experimental conditions, the enhanced formation of focal adhesions, which were detected as punctate structures with an antibody against phosphorylated FAK at tyrosine-397, after stimulation with TGF-β was decreased in BJ cells by treatment with Compound (1) (FIG. 19E). Many signalling complexes are assembled in focal adhesion sites, and those complexes dispatch several downstream signals, including those involved in the PI3K/AKT/mTOR pathway. See, e.g., Sulzmaier et. al. “FAK in cancer: mechanistic findings and clinical applications”, Nature Reviews Cancer 2014, 14, 598-610.

U2OS-EB3-AG cells = assay: Antiproliferative activity in U2OS-EB3-AG cells; type: cell-based
[3] = tested on: human uterine sarcoma cell line MES-SA xenograft; assay: MES-SA soft tissue sarcoma xenograft as monotherapy (FIG. 17); type: in vivo, nude mice; settings: 180 μg/kg i.v. Day 1 and Day 8
Description: A human uterine sarcoma cell line MES-SA, which had been cultured in an RPMI-1640 containing 10% FBS, and penicillin-streptomycin, was adjusted to a concentration of 2×10^8 cells/mL with Hanks' Balanced Salt Solution to prepare a cell suspension, and the suspension was mixed with Geltrex® (Thermo Fisher Scientific Inc., #A1413202) in a ratio of 1:1 to prepare a cell suspension in a concentration of 1×10^8 cells/mL. The cell suspension was inoculated in a volume of 100 μL into a subcutaneous part of a right flank of nude mice, 6 weeks of ages (CAnN.Cg-Foxnlnu/CrlCrlj, female, Charles River Laboratories Japan Inc.). Six days after cell inoculation (Day 1), the shortest diameter and the longest diameter of a tumor in each mouse were measured by using an electronic digital caliper (Digimatic™ caliper, Mitutoyo Corporation), so as to calculate the volume of the tumor in accordance with the following calculation formulae: […]
On the basis of the volumes of tumors obtained on Day 1, the mice were grouped such that averages of the tumor volumes were substantially equal among the groups. The experiment was conducted on groups each consisting of 6 mice. The test compound was dissolved in DMSO and a solution was stored in the freezer before use. Immediately before the administration, the stock solution was diluted with saline. […]

C=C1C[C@@H]2CC[C@@]34C[C@H]5O[C@H]6[C@@H](O3)[C@H]3O[C@H](CC[C@@H]3O[C@H]6C5O4)CC(=O)O[C@@H]3[C@@H](C)[C@@H]4O[C@@H]5C[C@]6(C[C@@H]7O[C@]8(C[C@H](C)[C@@H]9O[C@H](CN)[C@H](O)C[C@@H]9O8)C[C@H](C)[C@@H]7O6)O[C@@H]5C[C@@H]4O[C@H]3C[C@H]3O[C@@H](CC[C@@H]1O2)C[C@@H](C)C3=C (stereo in doubt) [Compound (1)]
IC50 [1]: 0.512 nM
TGF-β-induced phosphorylation and nuclear localization of Smad⅔ ([2]; BJ cells): did not significantly change
enhanced formation of focal adhesions (phosphorylated FAK at tyrosine-397) ([2]; BJ cells after stimulation with TGF-β): decreased
activation of the PI3K/AKT/mTOR pathway ([2]; BJ cells treated with TGF-β): reduce the activation of the PI3K/AKT/mTOR pathway
TGF-β-enhanced P3-tubulin expression and microtubule network formation ([2]; BJ cells, co-treatment with TGF-β): diminished
α-SMA induction by TGF-β ([2]; BJ cells, immunofluorescence, 2 days): interfered with α-SMA induction by TGF-β in BJ cells without growth inhibitory activity
IC50 (U2OS-EB3-AG cells): 0.5 nM
antitumor activity [3]: tumor growth delay

Reference: US20240309014A1, “MACROCYCLIC COMPOUNDS AND USES THEREOF” (President and Fellows of Harvard College, priority 2017, published 2024)
